Where two headings read alike, the source gives them in different places.
What was measured:
[1] = system: Lox; experiment: Lox activity in lungs of monocrotaline-exposed rats; assay type: in vivo, rat; details: daily BAPN or daily i.p. verteporfin 25 mg/kg, vs vehicle
Method: Monocrotaline-treated rats: As we previously described (7, 8), male Sprague-Dawley rats (10-14 week old) were injected with 60 mg/kg monocrotaline at time 0; at 0-4 weeks post-exposure, right heart catheterization was performed followed by harvest of lung tissue for RNA extraction or paraffin embedding, as described below (section: Tissue harvest).
To establish definitively whether periarteriolar ECM remodeling and YAP/TAZ modulate vascular cell metabolism in vivo, it was determined whether alteration of YAP/TAZ-dependent mechanotransduction directly controls glutaminolysis and PH development in the monocrotaline rat model. First, using a known pharmacologic inhibitor (β-aminoproprionitrile, BAPN) of Lox, the enzyme responsible for collagen crosslinking and consequent matrix stiffening, it was determined whether inhibition of ECM stiffening could prevent the metabolic changes and downstream PH manifestations observed in monocrotaline-exposed rats (FIG. 4A). […] Such metabolic effects further decreased vascular endothelial and smooth muscle proliferation, as reflected by in situ arteriolar staining (FIG. 4G), and ameliorated hemodynamic and histologic manifestations of PH, as measured by vascular remodeling and muscularization (FIG. 4G), and right ventricular systolic pressure (RVSP) (FIG. 4H).

[2] = system: GLS1; assay type: in vivo, rat; details: monocrotaline-exposed rats; for GLS activity: daily BAPN or daily i.p. verteporfin 25 mg/kg; for GLS1 activity in whole rat lung: daily i.p. 10 mg/kg, C968 from day 2 (prevention), CB839 from day 7 (reversal), vs vehicle
Method: According to the manufacturer instructions (Glutaminase Microplate Assay Kit, Cohesion Biosciences), flash frozen rat lung tissue (0.1 g/sample) was homogenized in 1 mL of assay buffer on ice and centrifuged at 8000 g 4° C. for 10 min. Protein concentration was determined by Bradford assay. Samples, normalized to total protein (100 μg), were incubated with kit reagents for 1 hr at 37° C., and absorbances were measured at 420 nm.
To induce PH, male Sprague-Dawley rats (10-14 week old) were injected intraperitoneally with 60 mg/kg monocrotaline (Sigma-Aldrich). After two days, rats underwent intraperitoneal injection daily with 25 mg/kg of verteporfin (Active Biochemicals Company, Ltd) solubilized in 5% dimethyl sulfoxide (DMSO, Sigma-Aldrich). Two days after the last injection on day 21 post-monocrotaline injection, right heart catheterization was performed followed by harvest of lung tissue and CD31+ cells for RNA or protein extraction, paraffin embedding, or cryopreservation with OCT (Sigma-Aldrich), as we described (2).
To induce PH, male Sprague-Dawley rats (10-14 week old) were injected intraperitoneally with 60 mg/kg monocrotaline (Sigma-Aldrich). After two days, serial intraperitoneal injections were given daily of C968 (10 mg/kg, Sigma-Aldrich), and after seven days post-monocrotaline injection, serial intraperitoneal injections were given daily of CB839 (10 mg/kg, Selleck Chemicals). Two days after the last injection on day 21 post-monocrotaline injection, right heart catheterization was performed followed by harvest of lung tissue and CD31+ cells for RNA or protein extraction, paraffin embedding, or cryopreservation with OCT (Sigma-Aldrich), as we described (2).

[3] = system: PAAFs; experiment: PAAF-dependent ECM remodelling on cytokine stimulation (RT-qPCR, picrosirius red); assay type: cell-based; details: for TGF-b-induced ECM related genes expression / fibroblast activation marker (a-SMA) expression: PAAFs, RT-qPCR; for fibroblast activation marker (a-SMA) expression: TGF-b; for PAAFs dependent ECM remodelling: stimulation by pro-inflammatory cytokines (EDN1, IL6 or TGF-b)
Excerpt: A-C) Pharmacological inhibition of GLS1 by either BPTES, C968 or CB839 blunted metabolic activation of PAAFs cultivated on stiff matrix as reflected by decreased glutaminolysis (A), glycolysis (B) and aspartate production (C). D-E) Pharmacological inhibition of GLS1 by either BPTES, C968 or CB839 decreased PAAFs dependent ECM remodelling upon stimulation by pro-inflammatory cytokines (EDN1, IL6 or TGF-b). […] G-H) Fibrilar collagen visualization (G) and quantification (H) by picrosirius red staining confirmed a decreased of ECM remodelling by activated PAAF (TGF-b) in presence of GLS1 inhibitors. I-M) PAAFs were cultivated upon indicated treatments. Cells were removed and pulmonary arterial endothelial cells (PAECs) were cultivated on the matrix synthesized by the PAAF. […] Data are expressed as mean±SEM (*P<0.05, § P<0.01, #P<0.001) of at least 3 independent experiments performed in triplicate. Paired samples were compared by 2-tailed Student's t test, while 1-way ANOVA and post-hoc Tukey's tests were used for group comparisons.
Messenger RNAs were reverse transcribed using the Multiscript RT kit (Life Technologies) to generate cDNA. cDNA was amplified via fluorescently labeled Taqman primer sets using an Applied Biosystems 7900HT Fast Real Time PCR device. To specifically determine the relative expression of the two GLS1 isoforms KGA and GAC, TaqMan gene expression assays Hs01014019_m1 and Hs01022166_m1 were used respectively. Fold-change of RNA species was calculated using the formula (2^−ΔΔCt), normalized to RPLP0 expression.
Picrosirius Red stain was achieved through the use of 5 μm paraffin sections stained with 0.1% Picrosirius Red (Direct Red80, Sigma-Aldrich) and counterstained with Weigert's hematoxylin to reveal fibrillar collagen. The sections were then serially imaged using with an analyzer and polarizer oriented parallel and orthogonal to each other. Microscope conditions (lamp brightness, condenser opening, objective, zoom, exposure time, and gain parameters) were maintained throughout the imaging of all samples. A minimal threshold was set on appropriate control sections for each experiment in which only the light passing through the orthogonally-oriented polarizers representing fibrous structures (i.e., excluding residual light from the black background) was included. The threshold was maintained for all images across all conditions within each experiment. The area of the transferred regions that was covered by the thresholded light was calculated and at least 10 sections/vessel per condition were averaged together (NIH ImageJ software). Targeted LC-MS/MS

| SMILES | LOX activity in lungs [1] | GLS activity [2] | TGF-b-induced ECM related genes expression [3] | fibroblast activation marker (a-SMA) expression [3] | PAAFs dependent ECM remodelling [3] | GLS1 activity in whole rat lung [2] | GLS activity ([2]; listed as verteporfin) |
| --- | --- | --- | --- | --- | --- | --- | --- |
| N#CCCN [BAPN, β-aminoproprionitrile] | decreased | decreased | – | – | – | – | – |
| CN(C)c1ccc(C2Nc3ccc4ccccc4c3C3=C2C(=O)CC(C)(C)C3)cc1Br (stereo not shown) [C968, 5-(3-Bromo-4-(dimethylamino)phenyl)-2,2-dimethyl-2,3,5,6-tetrahydrobenzo[a]phenanthridin-4(1H)-one] | – | – | decreased | decreased | decreased | decreased | – |
| O=C(Cc1cccc(OC(F)(F)F)c1)Nc1ccc(CCCCc2nnc(NC(=O)Cc3ccccn3)s2)nn1 [CB839] | – | – | decreased | decreased | decreased | decreased | – |
| C=Cc1c(C)c2cc3nc(cc4[nH]c(cc5nc(cc1[nH]2)C(C)=C5CCC(=O)O)c(CCC(=O)OC)c4C)[C@@]1(C)C3=CC=C(C(=O)OC)[C@H]1C(=O)OC [Verteporfin, 3-[(23S,24R)-14-ethenyl-5-(3-methoxy-3-oxopropyl)-22,23-bis(methoxycarbonyl)-4,10,15,24-tetramethyl-25,26,27,28-tetraazahexacyclo[16.6.1.1^3,6.1^8,11.1^13,16.0^19,24]octacosa-1,3,5,7,9,11(27),12,14,16,18(25),19,21-dodecaen-9-yl]propanoic acid] | decreased | decrease | – | – | – | – | improved |
